This is an account of results in US10710951B2, “Pharmaceutical composition containing verbenone derivative for treating or preventing neurodegenerative disease” (KOREA UNIVERSITY RESEARCH AND BUSINESS FOUNDATION, priority 2012, dated 2020).

In data set [1] the test system is cortical neurons. The data set can be described thus: Oxygen-glucose deprivation (OGD)/reoxygenation neuronal injury, LDH release. Format: cell-based. The settings on record: rat cortical neurons, FIG. 1. The method, then: (§1) Cortical neurons (5×10^5 cells/ml) were isolated from fetal SD rats (16-17 days). Specifically, brain cortex was cut, and cells were isolated from the tissue by repeated trituration using a Pasteur pipette in buffer (Hanks' Balanced Salt Solution, HBSS). The cell suspension (1.8×10^3 cells/mm^2) was dispensed on a plate pretreated with poly-D-lysine ([…])/laminin ([…]). The cells were placed in 10% FBS-containing NBM medium, and incubated in a […]/5% CO2 atmosphere at 37° C. After 15-16 days of the incubation, the experiment was performed.
In order to induce hypoxic-ischemic symptoms in vitro, the incubated cells were placed in an anoxic chamber (partial oxygen pressure <2 mmHg). The cells were incubated glucose-free DMEM while being bubbled with an anaerobic gas mixture (95% N2 and 5% CO2) for 30 minutes to remove residual oxygen, and were incubated at 37° C. for 90 minutes for oxygen deprivation. After 90 minutes, the exposed solution was replaced with 25 mmol/L glucose-containing DMEM medium to stop the OGD reaction, and the cells were restored to normal oxygen conditions. Control cells not exposed to OGD were incubated in glucose (25 mmol/L)-containing DMEM medium provided with an aerobic gas mixture (95% air and 5% CO2). The cells were treated with each sample 30 minutes before, and during the entire period of OGD/re-oxygenation.
(§2) In order to measure cell injury or cell death, the amount of LDH released into the medium was measured using a cell viability measurement kit (Sigma-Aldrich, St. Louis, Mo.). Cell viability was expressed as the percentage of LDH relative to the total cellular LDH level measured in sister cultures lysed by freezing-thawing after the experiment.
For orientation: Release of lactate dehydrogenase indicates damage to the cell membrane.

For data set [2], the system named is cortical neurons. The data set is described as follows: NMDA-induced excitotoxicity, LDH release. Format: cell-based, SD rats. Also noted: dose or concentration left out as unconfirmed. Conditions: cultured cortical neuronal cells; sample 30 min before NMDA; lower than MK-801; FIG. 2. The method, then: as §1
After incubation on the plate for 15-18 days, the cortical neurons were exposed to NMDA ([…]) in a solution (Mg^2+-free Earle's balanced salt solution (EBSS); containing 1.8 mM CaCl2 and 10 mM glycine) for 10 minutes. After exposure, the cells were washed with MgSO4-containing EBSS solution, and incubated in 25 mmol/L glucose-containing DMEM medium in a 5% CO2 incubator at 37° C. 30 Minutes before treatment with NMDA, the cells were treated with each sample […].
as §2

Data set [3] is described as follows: Oxygen radical absorbance capacity (ORAC) assay. Also on record: ORAC assay TE25 (trolox equivalents): dose or concentration left out as unconfirmed. The protocol: An ORAC assay was performed as disclosed in the literature (Huang, D. et al., J. Agric. Food Chem., 53, 1841-56, 2005).
AAPH (60 mM) and fluorescein (50 nM) were prepared in buffer (75 mM phosphate buffer, pH7.4) without a sample or a sample or a standard (Trolox). Each of the samples and the standard was suspended in a solution of 7% RMCD (randomly methylated beta-cyclodextrin) in 50% acetone. RMCD was used to increase the solubility of oil-soluble samples. Each sample was sufficiently mixed with fluorescein solution (66 nM, 190 μl) by shaking for 5 seconds. After incubation at 37° C. for 10 minutes, AAPH (500 mM, 30 μl) was quickly added to each sample, and a decrease in the fluorescence was measured using a fluorescence microplate reader (Ex=485 nm, Em=530 nm; SpectraMax GeminiEM, Molecular Devices, Sunnyvale, Calif.) at 37° C. at 5-min intervals for 9 hours. To quantify the activity of scavenging peroxyl radicals, AUC (area-under-the-curve) was calculated according to the following equation 2, and net AUC was calculated according to the following equation 3, and the TE (trolox equivalents) of each sample was calculated according to the following equation 4 based on a standard curve of net AUC plotted according to an increase in trolox concentration. AUC=(0.5+f1/f0+f2/f0+f3/f0+ . . . +fn−2/f0+fn−1/f0+fn/f0)×5, Equation 2
wherein f0 is the first fluorescence at 0 min and time I. Net AUC=AUCsample−AUCblank. Equation 3 TE(trolox equivalents) of each sample=[netAUCsample […]]/[net AUCtrolox […]]. Equation 4
The antioxidant activities of the verbenone derivatives of the present invention were measured by the following two different chemical reactions: (1) a single electron transfer-based assay that is a […] [DPPH] assay that measures a decrease in DPPH acting as a free radical generator and a termination probe; and (2) a hydrogen atom transfer assay that is an oxygen radical absorbance capacity [[…]] assay that measures the competitive reaction kinetics of a peroxyl radical generator (AAPH; 2,2′-azobis-(2-methylpropionamide)-dihydrochloride) and each sample acting as an antioxidant for oxidizable fluorescent probe (fluorescein).

In the case of `COc1cc(C=CC2=CC(=O)[C@H]3C[C@@H]2C3(C)C)cc(O)c1O` [Compound 3f, (1S,5R)-4-(3,4-dihydroxy-5-methoxystyryl)-6,6-dimethylbicyclo[3.1.1]hept-3-en-2-one], in the data set with cortical neurons [1] (OGD/reoxygenation, comparable to MK801), the “neuronal injury induced by OGD (LDH release)” value is “significantly reduced neuronal injury”. In addition, the cytotoxicity entry in the data set with cortical neurons [1] was “showed no cytotoxicity”. In the data set with cortical neurons [2], the NMDA-induced neuronal injury entry is reported as “significantly reduced NMDA-induced neuronal injury”. In data set [3], the “ORAC assay Net AUC” value was 99.06 ± 37.80. The “ORAC assay TE25 (trolox equivalents)” value in data set [3] (net AUC sample / net AUC trolox) was 2.83 ± 0.22.
